Data reported in patent US11800874B2, “Composition comprising a selective herbicide and an algal extract, use of an algal extract for detoxifying plants subjected to treatment with a selective herbicide” (LABORATOIRES GOËMAR, priority 2014, dated 2023).
Like-named read-outs stand apart in the source and are kept apart here.

How the values were obtained:
Conventional soybean [1] = conditions: in vivo
From the text: (§1) Conventional soybean (that is to say not genetically modified and therefore not resistant to glyphosate) was planted in a greenhouse and left to grow until the 5-leaf stage.
(§2) A control batch was also cultivated, onto which water was sprayed.

Conventional soybean [2] = conditions: in vivo; remark: listed apart in the source
From the text: as §1, §2

[3] = tested on: Glyphosate-resistant soybean; test: Phytotoxicity of spray treatments on glyphosate-resistant soybean (Example 1); conditions: 4 weeks after treatment
From the text: Glyphosate-resistant soybean was planted in a greenhouse and left to grow until the 5-leaf stage. It was separated into different batches, which were each treated by spraying with the following different compositions:
as §2

Manganese-EDTA complex [Mn]
0%: Necrosed surface area (Conventional soybean [1]) | Plants having a necrosed leaf (Conventional soybean [1]) | Necrosed surface area (Conventional soybean [2]) | Plants having a necrosed leaf (Conventional soybean [2]) | Necrosed surface area ([3]; sprayed composition 0.25% w/v) | Plants having a necrosed leaf ([3]; sprayed composition 0.25% w/v) | Necrosed surface area ([3]; sprayed composition 0.5% w/v) | Plants having a necrosed leaf ([3]; sprayed composition 0.5% w/v)
